These are literature values, as cited in patent US20090246264A1, “Transdermal Tobacco Alkaloid Patch” (Fertin Pharma, priority 2005, published 2009).

For the data set the following is noted: pure nicotine placed on the skin of an ordinary human being.

On to `CN1CCCC1c1cccnc1` (stereo not shown) [nicotine], for which the lethal dose is 50 mg.
